Test results reported in ChEMBL document CHEMBL1137207, “Solution structure of amyloid beta-peptide (25-35) in different media” (J Med Chem, 2004).
Several values for one entry are separate records, joined by “and”; a condition that tells them apart may be missing. Identical values can stand only once. Where a SMILES comes first, the peptide text is derived from it.

Test: Retention time of the compound
Format: ADME

tR: 13.37 min and 10.93 min
SMILES: CC[C@H](C)[C@H](NC(=O)[C@H](C)NC(=O)CNC(=O)[C@H](CCCCN)NC(=O)[C@H](CC(N)=O)NC(=O)[C@H](CO)NC(=O)CN)C(=O)N[C@H](C(=O)NCC(=O)N[C@@H](CC(C)C)C(=O)N[C@@H](CCSC)C(=O)O)[C@@H](C)CC (H-GSNKGAIIGLM-OH)
